Bounds are passed on as bounds.

Assay [1] deals with T1, recombinant human ULK1 protein (1-649) (Homo sapiens, UniProt O75385).
T1 construct: recombinant human ULK1 protein (1-649, SignalChem #U01-11G); purchased SignalChem U01-11G
T1 sequence (O75385 1-649): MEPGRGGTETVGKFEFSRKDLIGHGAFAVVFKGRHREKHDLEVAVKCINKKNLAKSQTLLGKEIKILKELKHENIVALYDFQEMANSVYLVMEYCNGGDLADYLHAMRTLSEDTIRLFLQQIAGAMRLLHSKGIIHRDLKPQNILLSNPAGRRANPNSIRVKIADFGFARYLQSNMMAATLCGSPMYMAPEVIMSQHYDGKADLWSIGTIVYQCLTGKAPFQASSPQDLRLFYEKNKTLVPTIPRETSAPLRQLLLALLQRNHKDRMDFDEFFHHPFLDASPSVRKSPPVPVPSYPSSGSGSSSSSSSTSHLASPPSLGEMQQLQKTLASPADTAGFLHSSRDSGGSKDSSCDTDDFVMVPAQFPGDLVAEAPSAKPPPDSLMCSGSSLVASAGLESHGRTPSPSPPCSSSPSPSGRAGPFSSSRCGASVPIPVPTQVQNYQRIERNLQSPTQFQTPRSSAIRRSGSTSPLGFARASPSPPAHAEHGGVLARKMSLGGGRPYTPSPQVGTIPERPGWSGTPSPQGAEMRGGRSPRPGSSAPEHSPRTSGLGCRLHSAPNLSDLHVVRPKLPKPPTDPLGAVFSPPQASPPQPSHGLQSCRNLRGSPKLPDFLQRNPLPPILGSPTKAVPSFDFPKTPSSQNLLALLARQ
Put plainly: ULK1 inhibition assay (ADP-Glo). The class given is biochemical. The following applies: 2 ug/mL ULK1, 80 ug/mL myelin basic protein, 25 uM ATP, assessed after one hour. The procedure:
IC50s measured by ADP-Glo assay are represented nM, with A representing IC50<20 nM, B representing IC50>20 nM. NT indicates the compound was not tested. ULK1 inhibition assays were performed in a 5 uL reaction volume containing 2 ug/mL recombinant human ULK1 protein (1-649, SignalChem #U01-11G) and 80 ug/mL myelin basic protein (MBP, Sigma-Aldrich #M1891) in the presence of 25 uM ATP (Sigma-Aldrich A7699). ULK 1 inhibition was assessed after one hour. Compounds were tested in triplicate in a 16-dose IC50 mode with 3-fold serial dilution and a starting dose of 30 uM. Staurosporine, a non-selective protein kinase inhibitor, was used in the assay as a positive control. Three separate experiments were carried out.

In assay [2] the target is T2, NanoLuc-ULK1 fusion in HEK293T cells (Homo sapiens, UniProt O75385).
T2 construct: host or cells: HEK293T
T2 sequence (O75385 1-1050): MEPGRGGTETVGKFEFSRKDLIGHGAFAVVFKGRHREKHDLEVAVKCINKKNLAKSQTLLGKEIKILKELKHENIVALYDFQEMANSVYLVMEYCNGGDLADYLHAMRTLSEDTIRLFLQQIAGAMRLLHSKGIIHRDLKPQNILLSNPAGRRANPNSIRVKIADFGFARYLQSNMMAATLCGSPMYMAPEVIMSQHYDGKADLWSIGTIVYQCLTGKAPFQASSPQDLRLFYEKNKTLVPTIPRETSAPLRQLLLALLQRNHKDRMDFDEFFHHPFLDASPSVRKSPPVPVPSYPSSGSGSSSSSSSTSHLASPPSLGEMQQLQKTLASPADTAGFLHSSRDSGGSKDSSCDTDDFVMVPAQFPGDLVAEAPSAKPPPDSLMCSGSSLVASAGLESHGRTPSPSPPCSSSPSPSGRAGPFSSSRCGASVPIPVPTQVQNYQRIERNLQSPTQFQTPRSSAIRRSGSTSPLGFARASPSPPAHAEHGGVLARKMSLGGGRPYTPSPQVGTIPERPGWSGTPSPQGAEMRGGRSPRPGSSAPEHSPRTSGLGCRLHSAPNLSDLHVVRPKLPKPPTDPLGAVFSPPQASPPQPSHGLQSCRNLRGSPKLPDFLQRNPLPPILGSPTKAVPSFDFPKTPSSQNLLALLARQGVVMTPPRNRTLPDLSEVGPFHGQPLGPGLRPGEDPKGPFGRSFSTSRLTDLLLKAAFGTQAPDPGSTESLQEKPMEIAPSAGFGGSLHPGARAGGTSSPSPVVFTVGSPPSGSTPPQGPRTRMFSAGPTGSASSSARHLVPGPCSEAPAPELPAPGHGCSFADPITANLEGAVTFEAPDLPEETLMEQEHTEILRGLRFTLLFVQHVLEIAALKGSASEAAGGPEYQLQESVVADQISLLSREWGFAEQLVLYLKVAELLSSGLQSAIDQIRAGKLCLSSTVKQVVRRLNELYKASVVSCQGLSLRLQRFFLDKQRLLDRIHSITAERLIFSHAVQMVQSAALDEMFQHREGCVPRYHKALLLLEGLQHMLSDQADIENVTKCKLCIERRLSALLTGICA
Put plainly: ULK1 NanoBRET assay. The class given is cell-based. The following applies: HEK293T transfected with NanoLuc-ULK1 Fusion Vector, Tracer K-5, 2 h incubation. The procedure: IC50s were also measured by ULK1 NanoBRET assay according to the following protocol: Human embryonic kidney cells (HEK293T) were transfected with NanoLuc®-ULK1 Fusion Vector (Promega #NV2211) using jetPRIME transfection reagent (Polyplus Transfection #114-15). Following 24 h, cells were trypsinized and resuspended in Opti-MEM® I (1×), Reduced Serum Medium (Gibco, #11058-021). Approximately, 7,000 cells per well (in 34 μL total volume) were replated into non-binding surface 384 well plates. Complete NanoBRET 20× Tracer K-5 reagent was prepared according to the manufacturer's directions and 2 μL were added to each well of the 384 plate (assay plate). The assay plate was mixed on an orbital shaker for 15 seconds at 700 rpm. Compounds were serially diluted at 200× final concentration in […], then diluted to 10× final concentration in assay media (Opti-MEM® I, Reduced Serum Medium). Next, 4 μL 10× test compounds were added to each well of the assay plate, followed by mixing at 700 rpm for 15 seconds. The assay plate was incubated for 2 h in a 37 C incubator with […] and then equilibrated to RT for 15 min. The 3× Complete Substrate plus Inhibitor Solution was prepared according to the manufacturer's directions with a concentration of Extracellular NanoLuc® Inhibitor of 60 μM to be used at a working concentration of 20 μM. The 3× Complete Substrate plus Inhibitor Solution was mixed and 20 μL per well was added to the assay plate and incubated at RT for 2-3 min. Donor emission wavelength (450 nm) and acceptor emission wavelength (610 nm) were measured using an assay compatible luminometer (see manufacturer's specifications).

For the molecule `CNC(=O)c1ccc2cc1Nc1nc(ncc1C(F)(F)F)Nc1ccc(c(OC)c1)OC/C=C\CCCO2` [Compound 16, (Z)-5^3-methoxy-N-methyl-3^5-(trifluoromethyl)-6,13-dioxa-2,4-diaza-3(4,2)-pyrimidina-1(1,3),5(1,4)-dibenzenacyclotridecaphan-8-ene-1^6-carboxamide], the concentration for half-maximal inhibition (IC50) is over 20 nM in assay [1] and over 1000 nM in assay [2].

For the molecule `CNC(=O)c1ccc2cc1Nc1nc(ncc1C(F)(F)F)Nc1ccc(c(OC)c1)OCCCCCCO2` [Compound 17, 5^3-Methoxy-N-methyl-3^5-(trifluoromethyl)-6,13-dioxa-2,4-diaza-3(4,2)-pyrimidina-1(1,3),5 (1,4)-dibenzenacyclotridecaphane-16-carboxamide], the half-maximal inhibitory concentration (IC50) in assay [1] was over 20 nM; in assay [2] it was over 1000 nM.

On to `CNC(=O)c1cc2ccc1Nc1nc(ncc1C(F)(F)F)Nc1ccc(OC)c(c1)OC/C=C/CCCO2` [Compound 18, (E)-1^4-methoxy-N-methyl-3^5-(trifluoromethyl)-6,13-dioxa-2,4-diaza-3(2,4)-pyrimidina-1(1,3),5(1,4)-dibenzenacyclotridecaphan-10-ene-5^2-carboxamide], for which the results for the IC50 in assay [1] and in assay [2] were under 20 nM and over 1000 nM, respectively.

For `CNC(=O)c1cc2ccc1Nc1nc(ncc1C(F)(F)F)Nc1ccc(OC)c(c1)OC/C=C\CCCO2` [Compound 19, (Z)-1^4-methoxy-N-methyl-3^5-(trifluoromethyl)-6,13-dioxa-2,4-diaza-3(2,4)-pyrimidina-1(1,3),5(1,4)-dibenzenacyclotridecaphan-10-ene-5^2-carboxamide], the IC50 in assay [1] was under 20 nM; in assay [2], under 1000 nM.

On to `CNC(=O)c1cc2ccc1Nc1nc(ncc1C(F)(F)F)Nc1ccc(OC)c(c1)OCCCCCCO2` [Compound 20, 1^4-Methoxy-N-methyl-3^5-(trifluoromethyl)-6,13-dioxa-2,4-diaza-3(2,4)-pyrimidina-1(1,3),5 (1,4)-dibenzenacyclotridecaphane-52-carboxamide], for which the values for the half-inhibitory concentration (IC50) in assay [1] and in assay [2] were under 20 nM and over 1000 nM, respectively.

Take `CNC(=O)c1ccc2cc1Nc1nc(ncc1C(F)(F)F)Nc1ccc(OC)c(c1)OC/C=C\CCO2` [Compound 21, (E)-1^4-methoxy-N-methyl-3^5-(trifluoromethyl)-6,12-dioxa-2,4-diaza-3(2,4)-pyrimidina-1,5(1,3)-dibenzenacyclododecaphan-9-ene-5^6-carboxamide]: the IC50 is over 20 nM in assay [1] and over 1000 nM in assay [2].

Take `CNC(=O)c1ccc2cc1Nc1nc(ncc1C(F)(F)F)Nc1ccc(OC)c(c1)OC/C=C/CCO2` [Compound 22, (Z)-1^4-methoxy-N-methyl-3^5-(trifluoromethyl)-6,12-dioxa-2,4-diaza-3(2,4)-pyrimidina-1,5(1,3)-dibenzenacyclododecaphan-9-ene-5^6-carboxamide]: the figures for the concentration for half-maximal inhibition (IC50) in assay [1] and in assay [2] were over 20 nM and over 1000 nM, respectively.

As for `CNC(=O)c1ccc2cc1Nc1nc(ncc1C(F)(F)F)Nc1ccc(OC)c(c1)OCCCCCO2` [Compound 23, 1^4-methoxy-N-methyl-3^5-(trifluoromethyl)-6,12-dioxa-2,4-diaza-3(2,4)-pyrimidina-1,5(1,3)-dibenzenacyclododecaphane-5^6-carboxamide], the concentration for half-maximal inhibition (IC50) in assay [1] is over 20 nM; in assay [2], over 1000 nM.

Take `CNC(=O)c1ccc2cc1Nc1nc(ncc1C(F)(F)F)Nc1ccc(c(OC)c1)OC/C=C/CCO2` [Compound 24, (E/Z)-5^3-Methoxy-N-methyl-3^5-(trifluoromethyl)-6,12-dioxa-2,4-diaza-3(4,2)-pyrimidina-1(1,3),5(1,4)-dibenzenacyclododecaphan-8-ene-1^6-carboxamide]: the IC50 in assay [1] is over 20 nM; in assay [2], over 1000 nM.

As to `CNC(=O)c1ccc2cc1OCCCCCOc1ccc(cc1OC)Nc1ncc(C(F)(F)F)c(n1)N2` [Compound 25, 5^3-Methoxy-N-methyl-3^5-(trifluoromethyl)-6,12-dioxa-2,4-diaza-3(4,2)-pyrimidina-1(1,3), 5(1,4)-dibenzenacyclododecaphane-1^6-carboxamide], the 50% inhibitory concentration (IC50) in assay [1] is over 20 nM; in assay [2], over 1000 nM.

The values are drawn from patent US12594277B2, “Macrocyclic ULK1/2 inhibitors” (SALK INSTITUTE FOR BIOLOGICAL STUDIES, priority 2020, dated 2026).
